Data published in publication PMC8580050, “Improvement of the antimicrobial potency, pharmacokinetic and pharmacodynamic properties of albicidin by incorporation of nitrogen atoms” (Chemical Science, 2021).
In brackets after ≈: the same amount, converted by molar mass.

Tests used:
[1] = in vivo; conditions: male, CD-1, mouse, whole blood, iv, 50 mg/kg
[2] = test system: K. pneumoniae (ciprofloxacin susceptible clinical isolate); assay: MIC, extended panel; format: cell-based, Klebsiella pneumoniae; conditions: Klebsiella pneumoniae
Procedure: (§1) 1.1.1 In vitro experiments
(§2) Determination of Minimal inhibitory concentrations (MIC)
(§3) Approved Standard M07-A9.1
(§4) CFU mL-1. […] Albicidin and […]
(§5) and serially diluted in DMSO (100%). […]
(§6) in 0.1 N HCL, respectively.
(§7) One row of each well plate served as a […]
(§8) sterility control (only MHB II-media). […]
(§9) adding 5 µL DMSO to several wells. […]
(§10) for growth inhibition by naked eye.
(§11) Microorganisms and Cell Cultures (DSMZ): […]
(§12) Dr. Werner (Robert-Koch-Institut, Wernigerode, Germany): […]

[3] = test system: Salmonella Kentucky (ciprofloxacin susceptible clinical isolate); assay: MIC, extended panel; format: cell-based; conditions: Salmonella enterica
Procedure: as §1, §2, §3, §4, §5, §6, §7, §8, §9, §10, §11, §12

[4] = test system: E. coli (ciprofloxacin susceptible clinical isolate); assay: MIC, extended panel; format: cell-based; conditions: Escherichia coli
Procedure: as §1, §2, §3, §4, §5, §6, §7, §8, §9, §10, §11, §12

[5] = test system: E. coli DSM 1116 + 50% Human Serum; assay: MIC determination in presence of 50% human serum; format: cell-based; conditions: Escherichia coli, DSM1116
Source text: This investigation was completed by assessment of the antibacterial activity in presence of human plasma (50%) (Table 1), since high plasma protein binding can severely impair antibacterial activity and thus efficacy.
as §1, §2, §3, §4, §5, §6, §7, §8, §9, §10, §11

[6] = Cell proliferation assay (HepG2 cells); conditions: human
Procedure: (§13) Cell proliferation assay (HepG2 cells)
(§14) The assay was performed by the company Eurofins (Taiwan). Cytotoxicity was representatively
(§15) according to a protocol by Ansar et al.27 This is in line with previously published cytotoxicity data on
(§16) GI = growth inhibition; TGI = total growth inhibition; LC = lethal concentration

[7] = test system: HepG2 cells; assay: in vitro; conditions: human
Procedure: as §13, §14, §15, §16

[8] = test system: S. aureus (ciprofloxacin susceptible clinical isolate); assay: MIC, extended panel; format: cell-based; conditions: Staphylococcus aureus
Procedure: as §1, §2, §3, §4, §5, §6, §7, §8, §9, §10, §11, §12
(§17) for the following 11 pathogenic isolates: […]

[9] = in vitro; conditions: plasma, pH 7.4
Procedure: Determination of plasma stability
Human and murine plasma aliquots (Sigma-Aldrich, Taufkirchen, Germany) were thawed and subsequently centrifuged at 3000 rpm for 10 min at 4°C. Resulting supernatant was diluted in the same volume of phosphate buffer (pH 7.4) to obtain a plasma concentration of 50% (v/v). Stock solutions of […]
concentration of 20 µM (5% DMSO). Following incubation at 37°C ice-cold methanol containing 30% […]
were centrifuged at 4000 rpm for 20 min at 4°C and 100 µL of supernatant were directly transferred to a fresh MS-vial. Samples were analyzed by LC/MS-MS experiments. Quantification of remaining compounds was performed by an external calibration curve of standard solutions in the range of […]

[10] = Pharmacokinetic study, i.v.; conditions: 50 mg kg^−1 i.v., after 24 h
[11] = molecular target: T1, E. coli DNA gyrase (Escherichia coli, UniProt P0AES4+P0AES6); assay: E. coli gyrase supercoiling inhibition assay; format: biochemical; set-up: key: ↑: for stronger inhibition; ≈: for equal inhibition; ↓: for diminished inhibition compared to albicidin 1; conditions: constant concentration of 45 nM, compared to albicidin 1
T1 construct: purchased inspiralis Limited, Norwich, UK
Procedure: Escherichia coli Gyrase Supercoiling Inhibition Assay
loaded on an agarose gel.
2-15. […] Addition of DNA
All derivatives were tested at a concentration of […]

[12] = test system: E. faecium (ciprofloxacin resistant clinical isolate); assay: microbe, parasite or virus in culture; format: cell-based; conditions: Enterococcus faecium
Procedure: as §1, §2, §3, §4, §5, §6, §7, §8, §9, §10, §11, §12, §17

[13] = test system: P. aeruginosa (ciprofloxacin resistant clinical isolate); assay: microbe, parasite or virus in culture; format: cell-based; conditions: Pseudomonas aeruginosa
Procedure: as §1, §2, §3, §4, §5, §6, §7, §8, §9, §10, §11, §12, §17

[14] = Formulation studies; format: physicochemical; conditions: DMSO/PEG400 (10 : 90), 10 mg ml-1
Procedure: of preclinical formulations in a final concentration of 10 mg ml-1. All experimental procedures were carried out in cooperation with Pharmacelsus GmbH (Saarbrucken, Germany) according to Table S6.
1.1.2 Tolerability assessment and pharmacokinetic study
In vivo tolerability studies as well as determinations of pharmacokinetic parameters were carried out in cooperation with Pharmacelsus GmbH (Saarbrucken, Germany).
For tolerability assessment adult male CD-1 mice (RjOrl:SWISS, 7 weeks old) were purchased from Janvier Labs (France). For pharmacokinetic studies 6 weeks old, male CD-1 mice (RjOrl:SWISS, Janvier Labs, France) were used. The animals were allowed to acclimatize for at least seven days before the start of experiments. Housing was realized in a temperature-controlled room (20-24°C) and mice were exposed to a 12h light/dark cycle. Mice had access to food and water ad libitum throughout the study.
All experimental procedures were approved by and conducted in accordance with the regulations of local Animal Welfare authorities (Landesamt für Gesundheit und Verbraucherschutz, Abteilung Lebensmittel- und Veterinärwesen, Saarbrücken, Germany).

[15] = test system: M. luteus DSM1790; assay: MIC determination (broth microdilution); format: cell-based, Micrococcus luteus; conditions: Micrococcus luteus, DSM1790
Procedure: as §1, §2, §3, §4, §5, §6, §7, §8, §9, §10, §11

[16] = test system: M. phlei DSM 750; assay: MIC determination (broth microdilution); format: cell-based, Mycobacterium phlei; conditions: Mycolicibacterium phlei, DSM750
Procedure: as §1, §2, §3, §4, §5, §6, §7, §8, §9, §10

[17] = test system: S. aureus (ciprofloxacin resistant clinical isolate); assay: microbe, parasite or virus in culture; format: cell-based, Staphylococcus aureus; conditions: Staphylococcus aureus
Procedure: as §1, §2, §3, §4, §5, §6, §7, §8, §9, §10, §11, §12, §17

[18] = test system: P. aeruginosa (ciprofloxacin susceptible clinical isolate); assay: MIC, extended panel; format: cell-based, Pseudomonas aeruginosa; conditions: Pseudomonas aeruginosa
Procedure: as §1, §2, §3, §4, §5, §6, §7, §8, §9, §10, §11, §12, §17

[19] = test system: S. Typhimurium TA100; assay: MIC determination (broth microdilution); format: cell-based, Salmonella typhimurium; conditions: Salmonella enterica, TYPHIMURIUM
Procedure: as §1, §2, §3, §4, §5, §6, §7, §8, §9, §10, §11

[20] = test system: E. coli DSM 1116; assay: MIC determination (broth microdilution); format: cell-based, Escherichia coli; conditions: Escherichia coli, DSM1116
Procedure: as §1, §2, §3, §4, §5, §6, §7, §8, §9, §10, §11

[21] = test system: A. baumannii (ciprofloxacin resistant isolate); assay: microbe, parasite or virus in culture; format: cell-based, Acinetobacter baumannii; conditions: Acinetobacter baumannii
Procedure: as §1, §2, §3, §4, §5, §6, §7, §8, §9, §10, §11, §12, §17

[22] = test system: E. faecium (ciprofloxacin susceptible clinical isolate); assay: microbe, parasite or virus in culture; conditions: Enterococcus faecium
[23] = test system: E. coli BW25113; assay: MIC determination (broth microdilution); format: cell-based; conditions: Escherichia coli
Procedure: as §1, §2, §3, §4, §5, §6, §7, §8, §9, §10, §11

[24] = test system: B. subtilis DSM 10; assay: MIC determination (broth microdilution); format: cell-based; conditions: Bacillus subtilis, DSM10
Procedure: as §1, §2, §3, §4, §5, §6, §7, §8, §9, §10, §11

[25] = test system: E. coli (ciprofloxacin resistant clinical isolate); assay: microbe, parasite or virus in culture; format: cell-based, Escherichia coli; conditions: Escherichia coli
Procedure: as §1, §2, §3, §4, §5, §6, §7, §8, §9, §10, §11, §12

[26] = test system: K. pneumoniae (ciprofloxacin resistant clinical isolate); assay: microbe, parasite or virus in culture; format: cell-based; conditions: Klebsiella pneumoniae
Procedure: as §1, §2, §3, §4, §5, §6, §7, §8, §9, §10, §11, §12

[27] = test system: Salmonella Kentucky (ciprofloxacin resistant clinical isolate); assay: microbe, parasite or virus in culture; format: cell-based; conditions: Salmonella enterica
Procedure: as §1, §2, §3, §4, §5, §6, §7, §8, §9, §10, §11, §12

T1 sequence (P0AES4 whole entry, one chain of several): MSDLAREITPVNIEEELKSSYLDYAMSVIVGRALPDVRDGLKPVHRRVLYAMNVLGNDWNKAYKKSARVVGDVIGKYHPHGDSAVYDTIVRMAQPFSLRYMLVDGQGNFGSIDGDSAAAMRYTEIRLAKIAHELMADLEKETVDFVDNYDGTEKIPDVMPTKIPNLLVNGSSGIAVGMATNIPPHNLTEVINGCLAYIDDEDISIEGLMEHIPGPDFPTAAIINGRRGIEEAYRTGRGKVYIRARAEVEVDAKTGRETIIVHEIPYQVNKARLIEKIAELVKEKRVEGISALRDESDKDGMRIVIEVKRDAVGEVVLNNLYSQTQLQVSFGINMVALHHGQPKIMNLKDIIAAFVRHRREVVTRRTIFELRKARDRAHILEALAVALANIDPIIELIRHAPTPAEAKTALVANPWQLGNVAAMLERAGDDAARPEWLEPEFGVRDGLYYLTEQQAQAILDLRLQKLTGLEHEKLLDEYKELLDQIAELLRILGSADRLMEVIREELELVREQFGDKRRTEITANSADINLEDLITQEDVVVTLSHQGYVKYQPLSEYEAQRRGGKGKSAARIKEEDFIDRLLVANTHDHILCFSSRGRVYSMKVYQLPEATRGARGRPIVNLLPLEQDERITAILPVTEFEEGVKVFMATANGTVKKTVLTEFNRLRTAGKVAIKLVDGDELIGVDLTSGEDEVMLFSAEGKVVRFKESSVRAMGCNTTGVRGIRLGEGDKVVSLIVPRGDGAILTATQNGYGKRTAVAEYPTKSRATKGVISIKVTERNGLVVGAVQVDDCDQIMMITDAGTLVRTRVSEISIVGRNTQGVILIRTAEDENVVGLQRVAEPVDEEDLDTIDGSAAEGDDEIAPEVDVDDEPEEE

## COc1c(NC(=O)c2ccc(NC(=O)c3ccc(NC(=O)[C@H](Cc4c[nH]nn4)NC(=O)c4ccc(NC(=O)/C(C)=C/c5ccc(O)cc5)cc4)cc3)c(OC)c2O)ccc(C(=O)O)c1O [Compound 2, AzaHis-albicidin]
[1]
  half-life: 10.1 h
[2]
  MIC: 16 µg/mL (≈ 18.1 µM)
[3]
  MIC: 0.063 µg/mL (≈ 0.0712 µM)
[4]
  MIC: 0.016 µg/mL (≈ 0.0181 µM)
[5]
  MIC: 2 µg/mL
[6]
  CC50: > 16 µM
  GI50: > 16 µM
[7]
  TGI (total growth inhibition): > 16 µM
[8]
  MIC: 0.25 µg/mL (≈ 0.283 µM)
[9]; human
  half-life at 20 µM: > 4 h
[9]; mouse
  half-life at 20 µM: 1.58 h
[10]
  plasma level as multiple of MIC for E. coli: higher than 5 times MIC
[11]
  E. coli gyrase inhibition: ≈
[12]
  MIC: 64 µg/mL (≈ 72.3 µM)
[13]
  MIC: 8 µg/mL (≈ 9.04 µM)
[14]
  appearance in formulation: clear solution
[15]
  MIC: 1 µg/mL (≈ 1.13 µM)
[16]
  MIC: 2 µg/mL (≈ 2.26 µM)
[17]
  MIC: 0.5 µg/mL (≈ 0.565 µM)
[18]
  MIC: 4 µg/mL (≈ 4.52 µM)
[19]
  MIC: 0.016 µg/mL (≈ 0.0181 µM)
[20]
  MIC: 0.016 µg/mL (≈ 0.0181 µM)
[21]
  MIC: 2 µg/mL (≈ 2.26 µM)
[22]
  MIC: 0.25 µg/mL (≈ 0.283 µM)
[23]
  MIC: 0.016 µg/mL (≈ 0.0181 µM)
[24]
  MIC: 0.125 µg/mL (≈ 0.141 µM)
[25]
  MIC: 0.063 µg/mL (≈ 0.0712 µM)
[26]
  MIC: ≥ 128 µg/mL
[27]
  MIC: 0.125 µg/mL (≈ 0.141 µM)
